# Active and inactive are the calls of the source.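 The calls were made as follows: active = half-maximal cytotoxic concentration at or below 10 µM; inactive = the rest.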
# Tested on: HEK293 LDH release cytotoxicity, resorufin fluorescence
# Test: membrane integrity loss in HEK cells – cell-based, fluorescence, cytotoxicity control for IDE activator project, dose response (AID 588440)
row,SMILES,CC50
1,C#CCOCCOCCOCCNc1nc(N2CCN(C(=O)CCCCCCCCCCNC(=O)Cn3cc(CCCCCN)nn3)CC2)nc(N2CCN(C(=O)CCCCCCCCCCNC(=O)[C@H](CO)n3cc(CCCSC)nn3)CC2)n1,17.4 µM (inactive)
2,C#CCOCCOCCOCCNc1nc(N2CCN(C(=O)CCCCCCCCCCNC(=O)[C@H]([C@@H](C)CC)n3cc(CCCCN=C(N)N)nn3)CC2)nc(N2CCN(C(=O)CCCCCCCCCCNC(=O)[C@@H]([C@H](C)O)n3cc(C)nn3)CC2)n1,6.37 µM
3,C#CCOCCOCCOCCNc1nc(N2CCN(C(=O)CCCCCCCCCCNC(=O)Cn3cc(CCCCCN)nn3)CC2)nc(N2CCN(C(=O)CCCCCCCCCCNC(=O)Cn3cc(C[C@@H](C)O)nn3)CC2)n1,16.4 µM (inactive)
4,C#CCOCCOCCOCCNc1nc(N2CCN(C(=O)CCCCCCCCCCNC(=O)Cn3cc(C[C@@H](C)O)nn3)CC2)nc(N2CCN(C(=O)CCCCCCCCCCNC(=O)[C@H](CCCN=C(N)N)n3cc(C[C@@H](C)CC)nn3)CC2)n1,7.28 µM
5,C#CCOCCOCCOCCNc1nc(N2CCN(C(=O)CCCCCCCCCCNC(=O)Cn3cc(CCCCCN)nn3)CC2)nc(N2CCN(C(=O)CCCCCCCCCCNC(=O)[C@H]([C@@H](C)CC)n3cc(CCCCCN)nn3)CC2)n1,5.97 µM
6,C#CCOCCOCCOCCNc1nc(N2CCN(C(=O)CCCCCCCCCCNC(=O)[C@H]([C@@H](C)CC)n3cc(CCCCCN)nn3)CC2)nc(N2CCN(C(=O)CCCCCCCCCCNC(=O)[C@H]([C@@H](C)CC)n3cc(CCCCN=C(N)N)nn3)CC2)n1,2.07 µM
7,C#CCOCCOCCOCCNc1nc(N2CCN(C(=O)CCCCCCCCCCNC(=O)[C@H](CO)n3cc(CCCSC)nn3)CC2)nc(N2CCN(C(=O)CCCCCCCCCCNC(=O)[C@H](CCCCN)n3cc(CCO)nn3)CC2)n1,20.8 µM (inactive)
8,C#CCOCCOCCOCCNc1nc(N2CCN(C(=O)CCCCCCCCCCNC(=O)[C@H](CCCCN)n3cc(CCO)nn3)CC2)nc(N2CCN(C(=O)CCCCCCCCCCNC(=O)[C@H](CCCN=C(N)N)n3cc(C[C@@H](C)CC)nn3)CC2)n1,5.63 µM
9,C#CCOCCOCCOCCNc1nc(N2CCN(C(=O)CCCCCCCCCCNC(=O)[C@@H](CCSC)n3cc(CCO)nn3)CC2)nc(N2CCN(C(=O)CCCCCCCCCCNC(=O)[C@H](CO)n3cc(CCCCCN)nn3)CC2)n1,12.6 µM (inactive)

# Reference: PubChem BioAssay AID588440 (The Scripps Research Institute Molecular Screening Center, 2011)
